The test has as its target Ec SspA (Escherichia coli, UniProt P0ACA3). Put plainly: single-channel recording in planar lipid bilayers. In kind it is biochemical. The settings on record: channel blocker, POPE:POPS:cholesterol 4:1:1, 500 mM KCl cis vs 50 mM KCl trans, 10 mM Tris-HCl pH 7.4, 1 mM DTT, room temperature.

Ec SspA, sequence (P0ACA3 whole entry): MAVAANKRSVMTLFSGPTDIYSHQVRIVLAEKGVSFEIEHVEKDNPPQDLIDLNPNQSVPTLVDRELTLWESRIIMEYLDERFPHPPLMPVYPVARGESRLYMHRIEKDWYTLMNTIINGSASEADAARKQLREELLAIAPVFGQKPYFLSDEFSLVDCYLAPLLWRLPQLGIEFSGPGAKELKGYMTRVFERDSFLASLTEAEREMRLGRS

As for `CC1(C2CCCC2)Cc2cc(OCC(=O)O)c(Cl)c(Cl)c2C1=O` (stereo not shown) [IAA-94], the “open probability at 100 μM” value is 0.1 ± 0.05.

Source of the values: publication PMC5561075, “Identification and Characterization of a Bacterial Homolog of Chloride Intracellular Channel (CLIC) Protein” (Scientific Reports, 2017).
